Data as given in patent US20110046046A1, “PROPHYLACTIC OR THERAPEUTIC COMPOSITION FOR DIABETES OR OBESITY” (priority 2008, published 2011).
*1 amine or outer side, *2 acyl side, *3 side chain or, on linkers, in order; H or OH if unused. Where no end group is shown, it is not given here. [ ]: non-standard residue; d: D form. γGlu = O=C(O)[C@H](CCC(=O)[*:2])N[*:1]; Met(O) = CS(=O)CC[C@H](N)C(=O)O

Key:
[1] = system: calcium receptor; conditions: shown in WO 2007/055388, WO 2007/055393, WO 2008/139945-7; J. Biol. Chem. 2006; cited from earlier work
[2] = system: GLP-1-producing cell strain GLUTag; experiment: Function to promote secretion of GLP-1 from GLUTag cells; type: cell-based, mouse; conditions: incubation 37° C. for 60 minutes, GLP-1 in supernatant by Enzyme immuno assay, vs Hepes B buffer control, FIGS. 2 and 3
Procedure: A GLP-1-producing cell strain GLUTag derived from the mouse large intestine was cultured in a Dulbecco's modified Eagle's medium supplemented with 10% FBS at 37° C. in the presence of 5% CO2. The GLUTag cells were cultured in a 48-well plate for 2 to 3 days until the cells reached a subconfluent state. Prior to the addition of each of samples, the wells were washed with a Hepes B buffer (140 mM NaCl, 4.5 mM KCl, 20 mM Hepes, 1.2 mM CaCl2, 1.2 mM MgCl2, 10 mM D-glucose, 0.1% BSA, pH 7.4), 80 μl of a sample solution obtained by dissolving each of the samples in the same buffer were added to the wells, and incubation was performed at 37° C. for 60 minutes. γ-Glu-Cys-Gly and cinacalcet were used as the samples. Further, the Hepes B buffer was used as a control. After supernatant collection, the cells were precipitated by centrifugation (800×g, 5 minutes, 4° C.), and 70 μl of the supernatant were collected and cryopreserved. The concentration of GLP-1 in the supernatant was measured with a commercially available Enzyme immuno assay kit (Yanaihara Institute Inc.).
In the same manner as in Example 2, a function to promote the secretion of GLP-1 was examined using a GLP-1-producing cell strain GLUTag. γ-Glu-Cys and protamine were used as samples.

[3] = system: CCK-producing cell strain STC-1; experiment: Function to promote secretion of CCK from STC-1 cells; type: cell-based, mouse; conditions: incubation 37° C. for 60 minutes, CCK in supernatant by Enzyme immuno assay, vs Hepes B buffer control, FIG. 1
Procedure: A CCK-producing cell strain STC-1 derived from the mouse small intestine was cultured in a Dulbecco's modified Eagle's medium supplemented with 10% FBS at 37° C. in the presence of 5% CO2. The STC-1 cells were cultured in a 48-well plate for 2 to 3 days until the cells reached a subconfluent state. Prior to the addition of each of the samples, the wells were washed with a Hepes B buffer (140 mM NaCl, 4.5 mM KCl, 20 mM Hepes, 1.2 mM CaCl2, 1.2 mM MgCl2, 10 mM D-glucose, 0.1% BSA, pH 7.4), […] of a sample solution obtained by dissolving each of the samples in the same buffer were added to the wells, and incubation was performed at 37° C. for 60 minutes. γ-Glu-Cys-Gly (Sigma-Aldrich Japan K.K.), γ-Glu-Val-Gly, and cinacalcet were used as the samples. Further, the Hepes B buffer was used as a control. After supernatant collection, the cells were precipitated by centrifugation (800×g, 5 minutes, 4° C.), and 80 μl of the supernatant were collected and cryopreserved.
After the supernatant had been pretreated with an OASIS cartridge (C18), the concentration of CCK in the supernatant was measured with an Enzyme immuno assay kit (Phoenix Pharmaceuticals).

[4] = system: male SD rats; experiment: Oral glucose tolerance test in rats; type: in vivo; conditions: rat, oral 160 mg/kg with glucose 2 g/kg, at 15 and 30 minutes after glucose administration, compared to glucose solution alone; FIG. 5
Procedure: After male SD rats (7-week-old) had been preliminarily fed (for 3 to 4 days), and fasted overnight, they were subjected to an oral glucose tolerance test. Tail vein blood before specimen administration was collected, and a sample [glucose solution alone (2 g/kg weight)/glucose solution comprising γ-Glu-Cys (160 mg/kg weight)] was orally administered with a feeding tube. After sample administration, tail vein blood was collected at 15, 30, 60, 90, and 120 minutes, and the plasma glucose concentration was measured with a commercially available kit (manufactured by Wako Pure Chemical Industries, Ltd.).

[5] = system: male SD rats; experiment: GLP-1 secretion test in rats (ligated ileal loop); type: in vivo; conditions: rat, 20 mg/2 mL deionized water into ligated ileum loop, ileal mesenteric vein blood 30-120 minutes, compared to water administration group; FIG. 4
Procedure: After male SD rats (8-week-old) had been preliminarily fed, fasted overnight, and subjected to celiotomy under ketamine/xylazine anesthesia. GLP-1-producing cells are mainly distributed in an ileal site. Thus, after a ligated ileal loop (30 cm) had been prepared, a catheter was placed into the ileal mesenteric vein, and blood was collected from the catheter at the time of 0 minute (0 time). A sample (2 mL of deionized water, 20 mg of γ-Glu-Cys/2 mL of deionized water) was administered into the ligated ileum loop, blood was collected at 30, 60, 90, and 120 minutes after administration, respectively, and the plasma GLP-1 concentration was measured with an Enzyme immuno assay kit (manufactured by Yanaihara Institute Inc.).

Row | Compound | calcium receptor activation [1] | other results
1 | [γGlu]-Thr | activate a calcium receptor | 
2 | [γGlu]-Val | activate a calcium receptor | 
3 | [γGlu]-[Met(O)] | activate a calcium receptor | 
4 | [γGlu]-[γGlu]-Val | activate a calcium receptor | 
5 | [γGlu]-Gly | activate a calcium receptor | 
6 | γ-Glu-Orn | activate a calcium receptor | 
7 | protamine |  | promotion of secretion of GLP-1 [2]: functioned to promote the secretion of GLP-1
8 | [γGlu]-Val-Gly |  | promotion of secretion of CCK [3]: functioned to promote the secretion of CCK
9 | [γGlu]-Leu | activate a calcium receptor | 
10 | Asp-Gly | activate a calcium receptor | 
11 | [γGlu]-Ala | activate a calcium receptor | 
12 | γ-Glu-Tau | activate a calcium receptor | 
13 | γ-Glu-Val-ol | activate a calcium receptor | 
14 | Cys-Gly | activate a calcium receptor | 
15 | N[C@@H](CCC(=O)N[C@@H](CS)C(=O)NCC(=O)O)C(=O)O [γ-Glu-Cys-Gly] | is a calcium receptor activator | promotion of secretion of GLP-1 [2]: functioned to promote the secretion of GLP-1; promotion of secretion of CCK [3]: functioned to promote the secretion of CCK
16 | γ-Glu-Cys(S-Me)(O) | activate a calcium receptor | 
17 | Glu-Cys | activate a calcium receptor | 
18 | γ-Glu-t-Leu | activate a calcium receptor | 
19 | Gly-Cys | activate a calcium receptor | 
20 | γ-Glu-Cys(S-Me) | activate a calcium receptor | 
21 | [γGlu]-Ser | activate a calcium receptor | 
22 | C[C@@H](NCCCc1cccc(C(F)(F)F)c1)c1cccc2ccccc12 [cinacalcet, (R)-N-(3-(3-(trifluoromethyl)phenyl)propyl)-1-(1-naphthyl)ethylamine, reference compound] |  | promotion of secretion of GLP-1 [2]: functioned to promote the secretion of GLP-1; promotion of secretion of CCK [3]: functioned to promote the secretion of CCK
23 | Leu-Asp | activate a calcium receptor | 
24 | [γGlu]-Cys | activate a calcium receptor | promotion of secretion of GLP-1 [2]: functioned to promote the secretion of GLP-1; blood glucose concentration [4]: significantly lower blood glucose concentration value; plasma GLP-1 concentration [5]: significantly higher elevation of plasma GLP-1 concentration
25 | Cys-Met | activate a calcium receptor | 
26 | [γGlu]-Val-NH2 | activate a calcium receptor | 
27 | [γGlu]-Ile | activate a calcium receptor | 
28 | [γGlu]-Met | activate a calcium receptor | 
